Values of other authors in patent publication US9504677B2, “Substituted N-aryl pyridinones” (Auspex Pharmaceuticals, Inc., priority 2007, dated 2016).

Columns and labels:
[1] = tested on: leiomyoma cells
[2] = tested on: myometrial cells
[3] = tested on: rodent disease models
[4] = humans

Q: With `Cc1ccc(=O)n(-c2ccccc2)c1` [Pirfenidone, 5-methyl-1-phenyl-1H-pyridin-2-one] as the molecule, how does the DNA synthesis [1] read?
A: Its DNA synthesis is “inhibits DNA synthesis”.

Q: What about the DNA synthesis [2] of the same molecule?
A: The DNA synthesis was “inhibits DNA synthesis”.

Q: What about the “efficacy in rodent disease models” value [3] of the same molecule?
A: Its value is “effective”.

Q: What about the half-life [4] of the same molecule?
A: Its half-life is “very short”.
